In publication PMC11581978, “Paenilamicins are context-specific translocation inhibitors of protein synthesis” (Nature Chemical Biology, 2024):
“Also recorded” adds a separate entry of the source.

Assays:
[1] = system: ribosomes translating ErmBL mRNA; assay: Toeprinting on ErmBL mRNA templates (Figs. 4a and 5c); format: biochemical, E. coli; details: 100 µM
Description: Toeprinting reactions for Figs. 4a and 5c were performed as described previously. Briefly, reactions were performed with 5 μl of PURExpress in vitro protein synthesis system. The reactions contained 0.1 pmol of the respective DNA template (Supplementary Table 2) and were supplemented with retapamulin, erythromycin, mupirocin or PamB2 as specified. The transcription–translation reactions were incubated 20 min at 37 °C. Subsequently, reverse transcription was performed for 10 min at 37 °C using AMV RT and the radiolabeled NV*1-primer. Reactions were stopped by the addition of 1 µl of 10 M NaOH and then neutralized with 0.8 µl of concentrated HCl. Subsequently, 200 µl of the stop buffer (0.3 M sodium acetate (pH 5.5), 5 mM EDTA and 0.5% SDS) was added and phenol extraction was performed. The obtained complementary DNA was precipitated in ethanol for subsequent gel electrophoresis.

[2] = system: E. coli 70S ribosome; assay: Cryo-EM of PamB2-stalled ribosome complexes; format: binding; details: 50 µM
Description: PamB2-ribosome complexes were generated by in vitro transcription–translation reactions in PURExpress in vitro protein synthesis system (New England Biolabs) with the same reaction mix as described earlier in the toeprinting assays. Complex formation reactions were carried out on MLIFstop toeprint DNA template in a 48 µl of reaction in presence of 50 µM PamB2. The reaction was incubated for 15 min at 37 °C. The reaction volume was then split: 42 µl were used for complex generation and 6 µl were used for toeprinting analysis. Ribosome complexes were isolated by centrifugation in 900 µl of sucrose gradient buffer (containing 40% sucrose, 50 mM HEPES-KOH, pH 7.4, 100 mM KOAc, 25 mM Mg(OAc)2 and 6 mM 2-mercaptoethanol) for 3 h at 4 °C with 80,000g in a Optima Max-XP Tabletop Ultracentrifuge with a TLA 120.2 rotor. The pelleted complex was resuspended in Hico buffer (50 mM HEPES-KOH, pH 7.4, 100 mM KOAc, 25 mM Mg(OAc)2) supplemented with 50 µM PamB2, then incubated for 15 min at 37 °C.
Sample volumes of 3.5 μl (eight at an optical density of 260 nm per milliliter) were applied to grids (Quantifoil, Cu, 300 mesh, R3/3 with 3-nm carbon) that had been freshly glow-discharged using a GloQube (Quorum Technologies) in negative charge mode at 25 mA for 90 s. Sample vitrification was performed using an ethane-propane mixture (37:63) in a Vitrobot Mark IV (Thermo Fisher Scientific), the chamber was set to 4 °C and 100% relative humidity and blotting was done for 3 s with no drain or wait time. Frozen cryo-EM grids were imaged on a TFS 300 kV Titan Krios at the Dubochet Center for Imaging EPFL (Lausanne, Switzerland). Images were collected on Falcon IV direct detection camera in counting mode using the EPU and AFIS data collection scheme with a magnification of ×96,000 and a total dose of 60 electrons per square angstrom (e^−/Å^2) for each exposure, and defocus ranging from −0.4 to −0.9 μm. In total, 7,638 videos were produced in EER format at a pixel size of 0.8 Å per pixel.
RELION v.4.0.1 (ref. [46]) was used for processing, unless otherwise specified. For motion correction, RELION’s implementation of MotionCor2 with 4×4 patches and for initial contrast transfer function (CTF) estimation CTFFIND v.4.1.14 (ref. [47]) was used. From 7,638 micrographs, 611,189 particles were picked using crYOLO v.1.8.04b47 with a general model. Then 562,816 ribosome-like particles were selected after two-dimensional classification and extracted at three times decimated pixel size (2.4 Å per pixel) (Supplementary Fig. 1b,c). An initial three-dimensional (3D) refinement was done using a E. coli 70S reference map (EMD-12573)[30]. […]

[3] = system: ribosomes translating ErmBL mRNA; assay: Toeprinting on ErmBL mRNA with mutated second codon (Fig. 4b); format: biochemical, E. coli; details: 50 µM, in duplicate
Description: Toeprinting reactions for Fig. 4b and Extended Data Fig. 2 were performed as described previously. Briefly, reactions were performed with 6 μl of PURExpress in vitro protein synthesis system (New England Biolabs). The reactions were carried out with different primers and templates (Supplementary Tables 2 and 3). The reactions contained 340 ng of the respective mRNA template and were supplemented with the different compounds as specified. The translation reactions were incubated for 30 min at 37 °C. The reverse transcription reaction was carried out using AMV RT and primer NV*1-Alexa 647 (5′-[…]-3′). The translation reactions were incubated with the reverse transcriptase and the primer for 20 min at 37 °C. mRNA degradation was carried out by the addition of 1 µl of 5 M NaOH. The reactions were neutralized with 0.7 µl of 25% HCl, and nucleotide removal was performed with the QIAquick Nucleotide Removal Kit (Qiagen). The samples were dried under vacuum for 2 h at 60 °C for subsequent gel electrophoresis. The 6% acrylamide gels were scanned on a Typhoon scanner (GE Healthcare).

[4] = system: Escherichia coli in vitro translation; details: E. coli in vitro translation, cited from earlier work
Description: The accordance of structural features of paenilamicins with the translation inhibitor edeine (Extended Data Fig. 1c) led to the hypothesis that paenilamicins may also exert their antimicrobial activity by binding to the ribosome and inhibiting protein synthesis. […] The best understood context-specific translation inhibitors are those that target the large subunit, where their inhibitory action is influenced by the sequence of the nascent polypeptide chain being synthesized, for example, macrolides and ketolides[30]–[32] ...

paenilamicin B2 [PamB2]
inhibition when Phe-tRNA (ms2i6A37) decodes UUC in the A-site ([1]; ErmBL mRNA): no inhibition | inhibition when tRNALeu (ms2i6A37) decodes UUG in the A-site ([1]; ErmBL mRNA): not inhibited | translation through stretches of UUG codons ([1]; ErmBL mRNA with 1–5 UUG repeats): ribosomes can translate through stretches of up to five UUG codons unhindered | ribosome stalling at serine codon UCA ([1]; ErmBL-(UUG)4 mRNA, seventh codon UCA, tRNASer with ms2i6A37): only weak stalling | ribosome stalling at serine codon UCC ([1]; ErmBL-(UUG)4 mRNA, seventh codon UCC, tRNASer lacking A37 modification): strong stalling | ribosome stalling at serine codon UCG ([1]; ErmBL-(UUG)4 mRNA, seventh codon UCG, tRNASer with ms2i6A37): only weak stalling | ribosome stalling at serine codon UCU ([1]; ErmBL-(UUG)4 mRNA, seventh codon UCU, tRNASer lacking A37 modification): strong stalling | ribosome stalling at subsequent sites, ErmBL mRNA ([1]; fourth UUC (Phe) in the P-site): a subset of ribosomes also become stalled | accumulation of ribosomes on AUG start codon, wildtype (1×UUG) ErmBL mRNA ([1]; mupirocin present, in duplicate): did not lead to a strong accumulation of ribosomes on the AUG start codon | ribosome stalling, wildtype (1×UUG) ErmBL mRNA ([1]; mupirocin present, second codon UUG in the P-site): ribosomes became stalled only once the second ermBL codon (UUG) moved into the P-site | ribosome stalling at subsequent sites, ErmBL mRNA ([1]; third GUA codon in the P-site): not the third GUA codon in the P-site | binding to elongating ribosomes (density) ([2]; A- and P-site tRNAs (nonrotated) or A/P- and P/E-hybrid tRNAs (rotated), 2.2-2.3 Å): additional density located between the A- and P-site tRNAs that could be unambiguously assigned to PamB2; also recorded: binds stably to the small subunit of elongating ribosomes containing A- and P-site transfer RNAs (tRNAs) | binding to initiating ribosomes (density) ([2]; P-site tRNA only, 2.4 Å): No density for PamB2 was evident; also recorded: not to initiating ribosomes bearing only a P-site tRNA | peptide bond formation in PamB2-bound elongation complexes ([2]; additional density on CCA-end of A-site and A/P-tRNA): peptide bond formation has already occurred | binding site on the ribosome ([2]; cryo-EM): located predominantly on the 30S subunit of the 70S ribosome, where it inserts into the cleft between the A- and P-site tRNAs | inhibition of first translocation, A-site codon AUG ([3]; ErmBL mRNA second codon AUG): clear toeprint bands | inhibition of first translocation, A-site codon CUG ([3]; ErmBL mRNA second codon CUG (tRNALeu, m1G37)): appeared to be stronger than with U, it was reproducibly weaker than with A and G | inhibition of first translocation, A-site codon GUG ([3]; ErmBL mRNA second codon GUG): appeared to be the strongest | inhibition of first translocation, A-site codon UUG ([3]; ErmBL mRNA second codon UUG): little to no inhibition of the first translocation event | inhibition of in vitro translation / protein synthesis (in words) [4]: potent inhibitor of protein synthesis | IC50 ([4]; read-out: half-inhibitory concentration (IC50)): 400 nM
